Measurements reported in patent US5162203A, “Methods of measuring isozymes and isozyme classes of alcohol dehydrogenase” (President and Fellows of Harvard College, priority 1989, dated 1992).

Legend:
[1] = Spectral parameters for absorption and fluorescence of ADH substrates and products; assay type: physicochemical; settings: for total decrease of molar absorptivity (aldehyde/NADH system): 340 nm, 40 mM Mes buffer, pH 7.1, with NADH
Experimental: The spectral parameters for 4-methoxy-1-naphthaldehyde (IA), 6-methoxy-2-naphthaldehyde (IIA) and their reduction products (IB and IIB, respectively) are shown in Table I.
Ultraviolet absorption spectra were measured on a Cary 219 or Hewlett-Packard 8451 spectrophotometer. Fluorescence measurements were made in a Perkin Elmer MPF3 spectrofluorometer, equipped with an Osram XBO 150 Watt Xenon lamp, an R446 photomultiplier, and thermostatted cell holder through which water was passed from a Poly-Temp circulator with the following spectrometer settings: excitation wavelength 316 nm. bandwidth 8 nm for both substrate IA and IIA; emission wavelength. 370 nm for substrate IA and 360 nm for substrate IIA, emission bandwidth 24 nm. Changes in fluorescence as a result of oxidation or reduction of the substrate was then measured in the ratio mode. Generally, for fluorometric reactions (see part 8 below). a sensitivity setting of 3 was used with compensation of fluorescence background by the zero suppression control of the instrument.
(§1) Aldehyde reduction was monitored by following the decrease of absorption at 340 nm in 40 mM Mes buffer, pH 7.1. in the presence of saturating NADH, 50 μM for Class I and 100 μM for Class II. […] Initial reaction rates were measured and kinetic parameters determined by conventional procedures as described by Segel, 1975, Enzyme Kinetics, pp. 591-597, Wiley, N.Y.

[2] = Stability of substrates and product solutions; assay type: physicochemical; settings: for stability in stock solution: 20° C., 30 days, water:acetonitrile (70:30 v/v)
Experimental: The dilute solutions (300 μM) were prepared by diluting 1 ml of the stock solution to 10 ml with water.
Concentrations were determined spectrophotometrically using a molar absorptivity of 5700 M^-1 cm^-1 at 296 nm for IB and 1270 M^-1 cm^-1 at 330 nm for IIB.

αβ1 ADH (Class I) = target: T1, αβ1 ADH (Class I) (Homo sapiens, UniProt P00325+P07327); test: Kinetics of enzymatic reduction of methoxynaphthaldehydes by αβ1 ADH; assay type: biochemical; settings: rate relative to ethanol oxidation at pH 10.0
T1 construct: beta1 allele (ADH1B*1, Arg47 and Arg369 in mature count)
T1 sequence (P07327 2-375): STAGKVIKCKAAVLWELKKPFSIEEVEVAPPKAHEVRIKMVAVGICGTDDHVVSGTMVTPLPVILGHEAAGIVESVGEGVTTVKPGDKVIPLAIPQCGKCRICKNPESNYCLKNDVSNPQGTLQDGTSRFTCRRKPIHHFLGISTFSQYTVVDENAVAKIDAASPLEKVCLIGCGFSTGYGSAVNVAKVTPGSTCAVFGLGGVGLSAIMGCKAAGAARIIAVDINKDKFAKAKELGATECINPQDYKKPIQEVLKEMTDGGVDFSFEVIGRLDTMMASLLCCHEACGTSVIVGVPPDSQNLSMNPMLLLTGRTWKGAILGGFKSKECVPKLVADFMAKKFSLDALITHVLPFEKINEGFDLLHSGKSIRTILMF
T1 sequence (P00325 2-375): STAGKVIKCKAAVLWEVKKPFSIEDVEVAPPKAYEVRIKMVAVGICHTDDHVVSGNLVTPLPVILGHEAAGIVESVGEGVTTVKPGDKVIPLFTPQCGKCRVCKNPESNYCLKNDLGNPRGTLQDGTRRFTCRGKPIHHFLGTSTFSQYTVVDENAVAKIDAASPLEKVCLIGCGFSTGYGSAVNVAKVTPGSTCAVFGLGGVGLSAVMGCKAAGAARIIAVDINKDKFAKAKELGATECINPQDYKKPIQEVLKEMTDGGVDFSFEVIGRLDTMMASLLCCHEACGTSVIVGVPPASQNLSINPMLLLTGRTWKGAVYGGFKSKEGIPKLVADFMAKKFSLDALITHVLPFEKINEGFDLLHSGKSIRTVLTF
Experimental: (§2) Standard assays for ethanol oxidation activity (Dalziel, 1957, Acta Chem Scand 11:1706-23) were carried out on a Cary 219 spectrophotometer interfaced with an Apple IIe microcomputer, using software provided by Varian Associates. The reaction mixture contained 2.5 mM NAD^+ in 0.1M glycine-NaOH buffer. pH 10.0, and 33 mM or 0.2M ethanol for Class I and Class II ADH, respectively.
as §1, with “N.Y. […]” for “N.Y.”
(§3) The linear increase of fluorescence was then recorded for 1-10 minutes, until 0.03-1 μM of substrate was consumed. […] The added product fluorescence intensity was then measured Fluorescence measurements were optimized for samples with low activity (<1 nM/minute). […] Rates measured in the presence of the 0.2 mM ADH inhibitors. […]
(§4) Additionally the reaction rates for these isozymes were compared to those measured by the standard assay for ethanol oxidation (see part 7 above) at pH 10.0 the optimum for oxidation of ethanol by ADH. […]

αγ1 ADH (Class I) = target: T2, αγ1 ADH (Class I) (Homo sapiens, UniProt P00326+P07327); test: Kinetics of enzymatic reduction of methoxynaphthaldehydes by αγ1 ADH; assay type: biochemical; settings: rate relative to ethanol oxidation at pH 10.0
T2 construct: gamma1 allele (ADH1C*1, Arg271 and Ile349 in mature count)
T2 sequence (P07327 2-375): as the sequence (P07327 2-375) above
T2 sequence (P00326 2-375): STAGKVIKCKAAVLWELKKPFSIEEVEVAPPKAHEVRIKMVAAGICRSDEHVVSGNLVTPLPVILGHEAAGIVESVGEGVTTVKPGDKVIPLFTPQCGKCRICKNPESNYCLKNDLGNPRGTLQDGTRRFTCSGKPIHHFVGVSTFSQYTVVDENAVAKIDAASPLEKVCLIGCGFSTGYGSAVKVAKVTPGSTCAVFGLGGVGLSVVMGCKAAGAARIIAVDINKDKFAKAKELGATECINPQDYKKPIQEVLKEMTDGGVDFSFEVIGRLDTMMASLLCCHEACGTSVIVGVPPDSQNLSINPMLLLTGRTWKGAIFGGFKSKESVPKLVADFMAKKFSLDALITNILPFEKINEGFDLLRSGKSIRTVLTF

β1 β1 ADH (Class I) = test: Kinetics of enzymatic reduction of methoxynaphthaldehydes by β1β1 ADH; assay type: biochemical, human; settings: for Km / kcat: Table IV; for v/v (EtOH): rate relative to ethanol oxidation at pH 10.0
Experimental: as §2, §1
All reaction mixtures (3 ml total volume) were prepared directly in 1 cm pathlength, 4 ml fluorometric cuvettes by adding 150 μl of the 300 μM substrate solution (e.g substrate IA or IIA) 100 μl of the 1 mM NADH solution (prepared as in part 5 above) and 2.69 ml of assay buffer (0.1M phosphate, pH 7.6). After thermal equilibration (25° C.) for 5 minutes, 60 μl of isozyme sample (either serum or purified ADH isozymes) was added to the cuvette.
The linear increase of fluorescence was then recorded for 1-10 minutes, until 0.03-1 μM of substrate was consumed. Larger substrate consumption was not found to be desirable (described in subpart (c) below). After this period the instrument sensitivity setting was reduced 10-30 fold, the signal compensated once again by zero suppression (see part 6 above), and 60 μl of 200-400 μM product (e.g., product IB or IIB) was added to provide an internal standard. The added product fluorescence intensity was then measured Fluorescence measurements were optimized for samples with low activity (<1 nM/minute). For samples with higher activity, repeat measurements were made with the serum volume reduced from 60 μl to 10 μl. Rates measured in the presence of the 0.2 mM ADH inhibitors. 4-MeP or 4-PeP, were made by adding 50 μl of 12 mM inhibitor to the cuvette prior to the assay buffer, and the reaction was carried out as above.
The rates of aldehyde reduction, determined as initial velocities (V) and expressed in units of nM/minute, were calculated according to: [formula] where the quantity in parentheses is the slope of the linear fluorescence increase calculated from the quantities Ft and FO, the fluorescence at time t and at the beginning of the reaction, respectively. Cst is the concentration of the product used as a standard added to the cuvette after the initial rate had been measured and Fst is the fluorescence intensity of the added product
(§5) Additionally the reaction rates for these isozymes were compared to those measured by the standard assay for ethanol oxidation (see part 7 above) at pH 10.0 the optimum for oxidation of ethanol by ADH. The rate of IA reduction for all Class I isozymes except the β1 β1 form is 1.5- to 4-fold faster than that of ethanol oxidation as measured by the conventional ethanol oxidation assay. […] Table III illustrates that IIA is an excellent substrate for Class II (.eta.) ADH, with a rate of IIA reduction at least 8-fold faster than that of ethanol oxidation.

β1 γ2 ADH (Class I) = target: T3, β1 γ2 ADH (Class I) (Homo sapiens, UniProt P00325+P00326, I350V/R272Q); test: Kinetics of enzymatic reduction of methoxynaphthaldehydes by β1γ2 ADH; assay type: biochemical; settings: rate relative to ethanol oxidation at pH 10.0
T3 construct: beta1 (ADH1B*1) and gamma2 (ADH1C*2) alleles
T3 sequence (P00325 2-375, stated change not applied): as the sequence (P00325 2-375) above
T3 sequence (P00326 2-375 R272Q/I350V): as the sequence (P00326 2-375) above, with R271Q, I349V counted along it
Experimental: as §2
as §1, with “N.Y. […]” for “N.Y.”
as §3, §4

γ1 γ1 ADH (Class I) = target: T4, γ1 γ1 ADH (Class I) (Homo sapiens, UniProt P00326); test: Kinetics of enzymatic reduction of methoxynaphthaldehydes by γ1γ1 ADH; assay type: biochemical; settings: rate relative to ethanol oxidation at pH 10.0
T4 construct: gamma1 allele (ADH1C*1, Arg271 and Ile349 in mature count)
T4 sequence (P00326 2-375): as the sequence (P00326 2-375) above

Horse ADH = test: Kinetics of enzymatic reduction of methoxynaphthaldehydes by horse ADH; assay type: biochemical; settings: for Km / kcat: pH 7.0, 50 μM NADH, spectrophotometric, >90% EE isozyme; for v/v (EtOH): rate relative to ethanol oxidation at pH 10.0
From the text: Crystalline horse ADH was purchased from Boehringer-Mannheim (Indianapolis,Ind.). NAD^+ and NADH, both grade III, were obtained as preweighed samples from Sigma Chemical Co. (St. Louis, Mo.); isobutyramide was from Aldrich., ethanol (100%) was from U.S. Industrial Chemicals Co. (New York, N.Y.); Mes acid (2-(N-morpholino)ethanesulfonic acid) was recrystallized from water. All other reagents were of analytical grade. Deionized, glass-distilled water was used throughout.
as §2
as §1, with “N.Y. […]” for “N.Y.”
as §5

| Compound | total decrease of molar absorptivity (aldehyde/NADH system) [1] | Absorption εmax ([1]; Mes buffer (45 mM), pH 7.0) | Absorption λmax ([1]; Mes buffer (45 mM), pH 7.0) | Fluorescence .phi. (quantum yield) ([1]; Mes buffer (45 mM), pH 7.0) | Fluorescence λmax ([1]; Mes buffer (45 mM), pH 7.0) | stability in stock solution [2] | stability in crystalline state [2] | stability of dilute aqueous solutions [2] | v/v (EtOH) (αβ1 ADH (Class I)) | v/v (EtOH) (αγ1 ADH (Class I)) | Km (β1 β1 ADH (Class I)) | kcat (β1 β1 ADH (Class I)) | v/v (EtOH) (β1 β1 ADH (Class I)) | v/v (EtOH) (β1 γ2 ADH (Class I)) | v/v (EtOH) (γ1 γ1 ADH (Class I)) | Km (Horse ADH) | kcat (Horse ADH) | v/v (EtOH) (Horse ADH) | further results |
| --- | --- | --- | --- | --- | --- | --- | --- | --- | --- | --- | --- | --- | --- | --- | --- | --- | --- | --- | --- |
| COc1ccc(C=O)c2ccccc12 [IA, 4-methoxy-1-naphthaldehyde] | 18000 M⁻¹ cm⁻¹ | 13,100 M^-1 cm^-1 | 332 nm | 0.003 | 420 nm | spectral changes were not observed | stable | much less stable | 1.59 | 2.71 | 4 µM | 0.033 s⁻¹ | 0.08 | 3.4 | 1.54 | 33 µM | 0.433 s⁻¹ | 0.04 | rate of reduction of IA versus IIA by Class I ββ isozymes (β1 β1 ADH (Class I); words): much faster |
| COc1ccc2cc(C=O)ccc2c1 [IIA, 6-methoxy-2-naphthaldehyde] | 12700 M⁻¹ cm⁻¹ | 14,400 M^-1 cm^-1 | 315 nm | 0.22 | 450 nm | spectral changes were not observed | stable | much less stable | 0.74 | 1.06 | 5.4 µM | 1.28 s⁻¹ | 4.85 | 1.6 | 0.45 | 2.2 µM | 35.83 s⁻¹ | 2.5 | Fluorescence .phi. (quantum yield) ([1]; in methanol): 0.03; Fluorescence λmax ([1]; in methanol): 435 nm |
